From US10736883B2, “Triazole furan compounds as agonists of the APJ receptor” (AMGEN INC., priority 2016, dated 2020)

How the values were obtained:
APJ receptor = APJ receptor (Homo sapiens (Human), UniProt P35414); assay: [35S]GTPγS binding assay on membranes from CHO cells stably expressing human APJ receptor; type: biochemical; settings: membranes of CHO cells stably expressing human APJ receptor, means of several independent experiments, read-out: Activity hAPJ SPA EC50 IP
How it was run: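 EC50 values were obtained by non-linear regression of [35S]GTPγS (0.2 nM) binding after 90 min at RT, with nonspecific binding defined by 100 μM GTPγS. Reactions used human APJ–expressing CHO cell membranes on WGA PS beads in HEPES pH 7.5 buffer with 5 mM MgCl2, 200 mM NaCl, 3 μM GDP and 0.1% BSA.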

[1] = tested on: isolated perfused rat hearts; assay: Ex vivo isolated perfused rat heart (Langendorff) assay, load independent inotropic/lusitropic effects; settings: percent change over vehicle; for Isolated Heart Assay dP/dtmax (%): contractility; for Isolated Heart Assay dP/dtmin (%): relaxation
Description: Evidence for Load Independent Inotropic Effects with APJ Agonists Using Ex Vivo Assay (Isolated Perfused Rat Hearts)
Naive Sprague Dawley® SD rats (Harlan laboratories (Livermore, Calif. USA)) were anaesthetized and hearts were excised followed by cannulation in the Langendorff apparatus (Harvard apparatus, Holliston, Mass. USA) via aorta. The heart was perfused retrograde with modified oxygenated Krebs-Henseleit buffer (Skrzypiec-Spring M et al., (2007) J. Pharmacol Toxicol Methods 55: 113-126). The pressure of the solution causes the aortic valve to shut and the perfusate is then forced into the ostium and the coronary vessels. This allows the heart to beat for several hours. A balloon was inserted into the left ventricle (LV) to measure dP/dtmax (derivative of left ventricular pressure) as an index of cardiac contractility. The APJ agonist was perfused constantly in a dose dependent manner into the heart to examine cardiac contractility.
Example 210.0 was infused at different concentrations and load independent contractility was measured by index of LV dP/dtmax and the results are expressed as a percent change over vehicle. […] Example 210.0 was infused at different concentrations and load independent lusitropic effect (relaxation) was measured by index of LV dP/dtmin where results are expressed as percent change over vehicle. […] Example 51.0 was infused at different concentrations and load independent contractility was measured by index of LV dP/dtmax and the results are expressed as a percent change over vehicle. […] Example 51.0 was infused at different concentrations and load independent lusitropic effect (relaxation) was measured by index of LV dP/dtmin where results are expressed as percent change over vehicle.

heart failure rat model = assay: In vivo cardiac contractility in heart failure (MI) rat model; settings: heart failure rats (LAD ligation), acute administration for 30 min
Protocol: Evidence for Improvement in Cardiac Contractility In Vivo in Heart Failure Rat Model
Based on the ex vivo findings in isolated heart assay, APJ agonists were dosed in vivo to investigate the translation of cardiac contractility in in vivo settings. Male Lewis rats (Charles River, USA) at 2-3 months of age were used for the study. Heart failure was induced by permanent ligation of the left descending coronary artery which results in injury to the heart with an ejection fraction of <35%. APJ agonists were administered dose dependently acutely for a period of 30 min. Administration of example compounds lead to an increase in cardiac contractility as measured by dP/dtmax (derivative of left ventricular pressure) (Table 27).

[2] = tested on: ex vivo naive Sprague Dawley rat hearts; assay: Langendorff isolated perfused rat heart (ex vivo); settings: Langendorff apparatus; for left ventricular dP/dtmax (cardiac contractility) / left ventricular dP/dtmin (cardiac relaxation): isolated perfused rat hearts, compared with vehicle / control (DMSO)
Description: FIG. 1A is a graph of left ventricular dP/dtmax as a function of concentration of Example 210.0 compared with vehicle in ex vivo naive Sprague Dawley rat hearts obtained using the Langendorff apparatus.
FIG. 1B is a graph of left ventricular dP/dtmin as a function of concentration of Example 210.0 compared with vehicle in ex vivo naive Sprague Dawley rat hearts obtained using the Langendorff apparatus.
FIG. 2A is a graph of left ventricular dP/dtmax as a function of concentration of Example 51.0 compared with vehicle in ex vivo naive Sprague Dawley rat hearts obtained using the Langendorff apparatus.
FIG. 2B is a graph of left ventricular dP/dtmin as a function of concentration of Example 51.0 compared with vehicle in ex vivo naive Sprague Dawley rat hearts obtained using the Langendorff apparatus.

isolated rat heart = assay: Isolated rat heart assay with APJ agonist in the presence or absence of AT1R blocker losartan; settings: losartan alone compared to control (DMSO)
Description: Evidence for Blockade of AT1R Signaling Enhances the APJ Receptor Signaling Using Ex-Vivo (Isolated Rat Heart Assay) and In Vivo (Myocardial Infraction (MI)-Induced Heart Failure Model)
Naive Sprague Dawley® SD rats were anaesthetized and hearts were excised followed by cannulation in the Langendorff apparatus via aorta. The heart was perfused retrograde with modified oxygenated Krebs-Henseleit buffer. The pressure of the solution causes the aortic valve to shut and the perfusate was then forced into the ostium and the coronary vessels. This allowed the heart to beat for several hours. A balloon was inserted into the left ventricle to measure dp/dtmax as an index of cardiac contractility. The APJ agonist (Example 56.0) was perfused in the presence or absence of AT1R blocker losartan.

Sequence of APJ receptor (P35414 whole entry): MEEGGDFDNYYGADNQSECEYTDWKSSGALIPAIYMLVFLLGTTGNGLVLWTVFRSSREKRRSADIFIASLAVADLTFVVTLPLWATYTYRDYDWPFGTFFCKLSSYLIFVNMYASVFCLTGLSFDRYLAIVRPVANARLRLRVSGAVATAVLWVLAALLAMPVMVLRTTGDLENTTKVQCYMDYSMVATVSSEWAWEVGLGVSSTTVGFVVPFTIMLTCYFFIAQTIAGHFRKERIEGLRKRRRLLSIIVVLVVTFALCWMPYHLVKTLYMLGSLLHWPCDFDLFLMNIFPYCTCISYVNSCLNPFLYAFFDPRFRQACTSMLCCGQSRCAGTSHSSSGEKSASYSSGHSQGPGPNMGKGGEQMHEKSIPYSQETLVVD

Compound | EC50 (APJ receptor) [nM] | Isolated Heart Assay dP/dtmax (%) [1] [%] | Isolated Heart Assay dP/dtmin (%) [1] [%] | MI Rat Model dP/dtmax (%) (heart failure rat model) | further results
COc1cccc(OC)c1-n1c(NS(=O)(=O)[C@@H](C)Cc2ncc(F)cn2)nnc1-c1ccco1 (single isomer, unassigned) [Example 51.0, (2S)—N-(4-(2,6-Dimethoxyphenyl)-5-(2-furanyl)-4H-1,2,4-triazol-3-yl)-1-(5-fluoro-2-pyrimidinyl)-2-propanesulfonamide or (2R)—N-(4-(2,6-dimethoxyphenyl)-5-(2-furanyl)-4H-1,2,4-triazol-3-yl)-1-(5-fluoro-2-pyrimidinyl)-2-propanesulfonamide] | 1 | 40.6 | 33.8 | 38% | –
COc1cccc(OC)c1-n1c(NS(=O)(=O)[C@@H](C)Cc2ncc(F)cn2)nnc1-c1ccc(C)o1 (single isomer, unassigned) [Example 108.0, (2S)—N-(4-(2,6-Dimethoxyphenyl)-5-(5-methyl-2-furanyl)-4H-1,2,4-triazol-3-yl)-1-(5-fluoro-2-pyrimidinyl)-2-propanesulfonamide or (2R)—N-(4-(2,6-dimethoxyphenyl)-5-(5-methyl-2-furanyl)-4H-1,2,4-triazol-3-yl)-1-(5-fluoro-2-pyrimidinyl)-2-propanesulfonamide] | 0.25 | 38.8 | 30.1 | – | –
COc1cccc(OC)c1-n1c(NS(=O)(=O)CCN2C(=O)N(C)CC[C@@H]2C)nnc1-c1ccc(C)o1 (single isomer, unassigned) [Example 204.0, N-(4-(2,6-Dimethoxyphenyl)-5-(5-methyl-2-furanyl)-4H-1,2,4-triazol-3-yl)-2-((6S)-3,6-dimethyl-2-oxotetrahydro-1 (2H)-pyrimidinyl)ethanesulfonamide ethanesulfonamide or N-(4-(2,6-dimethoxyphenyl)-5-(5-methyl-2-furanyl)-4H-1,2,4-triazol-3-yl)-2-((6R)-3,6-dimethyl-2-oxotetrahydro-1(2H)-pyrimidinyl)ethanesulfonamide] | 0.26 | 24.6 | 29.0 | No effect | –
COc1cccc(OC)c1-n1c(NS(=O)(=O)[C@H](C)Cc2ccc(Cl)cc2)nnc1-c1ccco1 (single isomer, unassigned) [Example 205.0, (2R)-1-(4-chlorophenyl)-N-(4-(2,6-dimethoxyphenyl)-5-(2-furanyl)-4H-1,2,4-triazol-3-yl)-2-propanesulfonamide or (2S)-1-(4-chlorophenyl)-N-(4-(2,6-dimethoxyphenyl)-5-(2-furanyl)-4H-1,2,4-triazol-3-yl)-2-propanesulfonamide] | 2.3 | 18.8 | 20.5 | – | –
COc1cccc(OC)c1-n1c(NS(=O)(=O)CCc2ncc(C)cn2)nnc1-c1ccc(C)o1 [Example 26.0, N-(4-(2,6-dimethoxyphenyl)-5-(5-methyl-2-furanyl)-4H-1,2,4-triazol-3-yl)-2-(5-methyl-2-pyrimidinyl)ethanesulfonamide] | 0.42 | 10.20 | 11.1 | 58% | –
COc1cccc(OC)c1-n1c(NS(=O)(=O)CCc2ccc(F)cn2)nnc1-c1ccco1 [Example 41.0, N-(4-(2,6-dimethoxyphenyl)-5-(2-furanyl)-4H-1,2,4-triazol-3-yl)-2-(5-fluoro-2-pyridinyl)ethanesulfonamide] | – | 22.1 | 22.7 | – | –
COc1cccc(OC)c1-n1c(NS(=O)(=O)CCc2ccc(Cl)cc2)nnc1-c1ccco1 [Example 111.0, 2-(4-Chlorophenyl)-N-(4-(2,6-dimethoxyphenyl)-5-(furan-2-yl)-4H-1,2,4-triazol-3-yl)ethanesulfonamide] | 7.8 | 19.5 | 24.9 | 97% | –
COc1cccc(OC)c1-n1c(NS(=O)(=O)[C@@H](C)[C@H](O)c2ncc(F)cn2)nnc1-c1ccc(C)o1 [Example 115.0, (1R,2S)-N-(4-(2,6-dimethoxyphenyl)-5-(5-methylfuran-2-yl)-4H-1,2,4-triazol-3-yl)-1-(5-fluoropyrimidin-2-yl)-1-hydroxypropane-2-sulfonamide] | 0.2 | 32.6 | 34.7 | 30% | –
COc1cccc(OC)c1-n1c(NS(=O)(=O)CCc2ccc(F)cc2C#N)nnc1-c1ccco1 [Example 210.0, 2-(2-Cyano-4-fluorophenyl)-N-(4-(2,6-dimethoxyphenyl)-5-(2-furanyl)-4H-1,2,4-triazol-3-yl)ethanesulfonamide] | 3.2 | 25.9 | 34.0 | 95.6% | left ventricular dP/dtmax (cardiac contractility) [2]: increases load independent cardiac contractility; left ventricular dP/dtmin (cardiac relaxation) [2]: increases load independent cardiac relaxation
COc1cccc(OC)c1-n1c(NS(=O)(=O)[C@@H](C)[C@H](OC)c2ncc(C)cn2)nnc1-c1ccc(C)o1 [Example 261.0] | 0.13 | 34.5 | 53.8 | 30% | –
CCCCc1nc(Cl)c(CO)n1Cc1ccc(-c2ccccc2-c2nn[nH]n2)cc1 [losartan] | – | – | – | – | left ventricular (LV) developed pressure (DevP) ([2]; compared with control (DMSO)): no impact on developed pressure; left ventricular (LV) systolic pressure (Sys) ([2]; compared with control (DMSO)): no impact on systolic pressure; left ventricular dP/dtmax (cardiac contractility) [2]: no impact on cardiac contraction; left ventricular dP/dtmin (cardiac relaxation) [2]: no impact on cardiac relaxation; cardiac contraction (dp/dtmax) (isolated rat heart): did not have any impact; cardiac relaxation (dp/dtmin) (isolated rat heart): did not have any impact; developed pressure (DevP) (isolated rat heart): did not have any impact; systolic pressure (Sys) (isolated rat heart): did not have any impact
(1R,2S)-1-(5-chloro-2-pyrimidinyl)-N-(4-(2,6-dimethoxyphenyl)-5-(5-methyl-2-furanyl)-4H-1,2,4-triazol-3-yl)-1-hydroxy-2-propanesulfonamide or (1S,2R)-1-(5-chloro-2-pyrimidinyl)-N-(4-(2,6-dimethoxyphenyl)-5-(5-methyl-2-furanyl)-4H-1,2,4-triazol-3-yl)-1-hydroxy-2-propanesulfonamide [Example 216.0] | 0.23 | – | – | – | –
(1S,2R)-N-(4-(2,6-dimethoxyphenyl)-5-(5-methyl-2-furanyl)-4H-1,2,4-triazol-3-yl)-1-hydroxy-1-(5-methyl-2-pyrazinyl)-2-propanesulfonamide or (1R,2S)-N-(4-(2,6-dimethoxyphenyl)-5-(5-methyl-2-furanyl)-4H-1,2,4-triazol-3-yl)-1-hydroxy-1-(5-methyl-2-pyrazinyl)-2-propanesulfonamide [Example 213.0] | 0.12 | – | – | – | –
(2R)-1-(3-cyano-5-fluoro-2-pyridinyl)-N-(4-(2,6-dimethoxyphenyl)-5-(2-furanyl)-4H-1,2,4-triazol-3-yl)-2-propanesulfonamide or (2S)-1-(3-cyano-5-fluoro-2-pyridinyl)-N-(4-(2,6-dimethoxyphenyl)-5-(2-furanyl)-4H-1,2,4-triazol-3-yl)-2-propanesulfonamide [Example 29.0] | 0.82 | – | – | – | –
